Assay results from ChEMBL document CHEMBL1147278, “Pharmacologically Active Metabolites from Symbiotic Microalgae in Okinawan Marine Invertebrates” (J Nat Prod, 1989).
pIC50: −log10 of the molar value. Values after ≈ are worked out from the molar mass of the structure shown.

What was measured:
[1] = Inhibition of sodium potassium ATPase activity
L1210 = test: Antitumor activity against mouse L1210 cells; format: functional, cell-based
[2] = Activation of calcium ATPase in sarcoplasmic reticulum at 100 uM

| pIC50 [1] | IC50 (L1210) [µg/mL] | Activity [2] [%] | SMILES |
| --- | --- | --- | --- |
| – | 0.019 (≈ 0.0338 µM) | – | C=C1/C=C(\C)[C@](C)(O)C[C@H](O)CC(=O)[C@@H](O)[C@@H](O)[C@H](C)C[C@H](C)OC(=O)/C(C)=C/CC/C=C/[C@@H]2O[C@H]2C[C@H](C)C1 [AMPHIDINOLIDE D] |
| – | 0.00014 (≈ 0.000249 µM) | – | C=C1/C=C(\C)[C@](C)(O)C[C@H](O)CC(=O)[C@H](O)[C@@H](O)[C@H](C)C[C@H](C)OC(=O)/C(C)=C/CC/C=C/[C@@H]2O[C@H]2C[C@H](C)C1 [AMPHIDINOLIDE B] |
| – | 0.0058 (≈ 0.00811 µM) | – | C=C1/C=C(\C)[C@@H](C)[C@@H](O)CC(=O)[C@@H](C)CC(=O)C[C@H]2CC[C@@H](O2)[C@H](/C=C/C=C(\C)[C@@H](O)C(=C)CCCC)OC(=O)C[C@@H]2O[C@H](C[C@H]2C)[C@H](O)[C@@H]1O [AMPHIDINOLIDE C] |
| – | 2.4 (≈ 4.52 µM) | – | C=C1C/C=C/[C@H](O)[C@@H](O)C(=C)[C@@H](O)[C@H](O)C(=C)C/C=C/C(C)=C/C(=O)O[C@H]([C@@H]2O[C@H]2[C@@H](C)CCC)[C@@H](C)C1 [AMPHIDINOLIDE A] |

The remaining lines, values behind:

| SMILES | pIC50 [1] | IC50 (L1210) [µg/mL] | Activity [2] [%] |
| --- | --- | --- | --- |
| CC/C=C\C/C=C\C/C=C\C/C=C\CCCCC(=O)OCC(CO[C@@H]1O[C@H](CO[C@H]2O[C@H](CO)[C@H](O)[C@H](O)[C@H]2O)[C@H](O)[C@H](O)[C@H]1O)OC(=O)CCCC/C=C\C/C=C\C/C=C\C/C=C\CC (some centres undefined) | 4.70 | – | – |
| CCCCCCCCCCCCCC/C=C/C(O)C(=O)N[C@@H](CO)[C@H](O)CCCCCCCCCCCCCCC (some centres undefined) [SYMBIORAMIDE] | – | 9.5 (≈ 16.3 µM) | 30 |
| CC/C=C\C/C=C\C/C=C\C/C=C\CCCCC(=O)OCC(O)CO[C@@H]1O[C@H](CO)[C@H](O)[C@H](O)[C@H]1O (some centres undefined) | 4.70 | – | – |
| CC/C=C\C/C=C\C/C=C\C/C=C\CCCCC(=O)OCC(CO[C@@H]1O[C@H](CO)[C@H](O)[C@H](O)[C@H]1O)OC(=O)CCCC/C=C\C/C=C\C/C=C\C/C=C\CC (some centres undefined) | 4.70 | – | – |
